Reference: patent US20110306597A1, “Nicotinamide Derivatives” (priority 2008, published 2011)

Molecular target: human recombinant H-PGDS (Homo sapiens, UniProt O60760)
Experiment: Fluorescence Intensity h-PGDS TBA Enzyme Assay
Assay type: biochemical
Conditions: 1:175,000 human recombinant H-PGDS, highest inhibitor concentration typically 1 μM
Procedure, shortened: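 Readout is PGH2 depletion: after a 42 s reaction with 5.0 μM PGH2 and 2.5 mM glutathione (pH 8.0 Tris, 10 min inhibitor preincubation), Fe(II) converts leftover PGH2 to MDA, which forms a fluorescent TBA complex. IC50s come from 11-point, 3-fold duplicate curves, 4-parameter fit.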

Sequence of human recombinant H-PGDS (O60760 whole entry): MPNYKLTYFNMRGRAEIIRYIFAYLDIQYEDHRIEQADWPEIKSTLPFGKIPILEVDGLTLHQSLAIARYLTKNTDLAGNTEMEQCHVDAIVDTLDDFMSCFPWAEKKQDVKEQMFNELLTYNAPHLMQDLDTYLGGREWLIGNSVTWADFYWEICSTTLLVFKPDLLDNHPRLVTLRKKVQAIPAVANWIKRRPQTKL

CC(C)(C)[C@@H](CO)NC(=O)c1ccc(-c2cccc(F)c2)nc1 [Example 539, 6-(3-Fluorophenyl)-N-[(1S)-1-(hydroxymethyl)-2,2-dimethylpropyl]nicotinamide]
IC50: 64.4 nM

COc1ccc(CCc2nnc(CNC(=O)c3ccc(-c4cccc(F)c4)nc3)[nH]2)cc1 [Example 31, 6-(3-Fluorophenyl)-N-({5-[2-(4-methoxyphenyl)ethyl]-4H-1,2,4-triazol-3-yl}methyl)nicotinamide]
IC50: 35 nM

COc1ccc(C(CNC(=O)c2ccc(-c3ccccc3)nc2)N2CCOCC2)cc1 (centres unmarked) [Example 400, N-[2-(4-Methoxyphenyl)-2-morpholin-4-ylethyl]-6-phenylnicotinamide]
IC50: 86.1 nM

COc1cccc(-c2ccc(C(=O)Nc3cccnc3)cn2)c1 [Example 485, 6-(3-Methoxyphenyl)-N-pyridin-3-ylnicotinamide]
IC50: 201 nM

CN(C)CC(C)(C)CNC(=O)c1ccc(-c2cccc(F)c2)nc1 [Example 168, N-[3-(Dimethylamino)-2,2-dimethylpropyl]-6-(3-fluorophenyl)nicotinamide]
IC50: 175 nM

N-(3-Fluorobenzyl)-6-(3- methylphenyl)nicotinamide [Example 238]
IC50: 38.9 nM

COc1ccc(C(NC(=O)c2ccc(-c3cccc(F)c3)nc2)C2CC2)cc1 (centres unmarked) [Example 202, N-[Cyclopropyl(4-methoxyphenyl)methyl]-6-(3-fluorophenyl)nicotinamide]
IC50: 99.9 nM

COC(=O)c1ccc(CNC(=O)c2ccc(-c3cccc(F)c3)nc2)cc1 [Example 416, Methyl 4-[({[6-(3-fluorophenyl)pyridin-3-yl]carbonyl}amino)methyl] benzoate]
IC50: 44.8 nM

O=C(NCCc1nnc(C2CC2)[nH]1)c1ccc(-c2cccc(F)c2)nc1 [Example 88, N-[2-(5-Cyclopropyl-4H-1,2,4-triazol-3-yl)ethyl]-6-(3-fluorophenyl)nicotinamide]
IC50: 9.06 nM

O=C(NCc1cc(F)cc2c1OCOC2)c1ccc(-c2ccccc2)nc1 [Example 357, N-[(6-Fluoro-4H-1,3-benzodioxin-8-yl)methyl]-6-phenylnicotinamide]
IC50: 1.73 nM

O=C(NCCN1CCCC(CO)C1)c1ccc(-c2cccc(F)c2)nc1 (centres unmarked) [Example 18, 6-(3-Fluorophenyl)-N-{2-[3-(hydroxymethyl)piperidin-1-yl]ethyl}nicotinamide]
IC50: 31.1 nM

CCCCCNC(=O)c1ccc(-c2cccc(F)c2)nc1 [Example 427, 6-(3-Fluorophenyl)-N-pentylnicotinamide]
IC50: 43.8 nM

CCOC(=O)CCCNC(=O)c1ccc(-c2ccc(F)cc2)nc1 [Example 330, Ethyl 4-({[6-(4-fluorophenyl)pyridin-3-yl]carbonyl}amino)butanoate]
IC50: 507 nM

O=C(NCC1CCCCO1)c1ccc(-c2ccccc2)nc1 (centres unmarked) [Example 399, 6-Phenyl-N-(tetrahydro-2H-pyran-2-ylmethyl) nicotinamide]
IC50: 27.6 nM

Cc1cccnc1CC(C)NC(=O)c1ccc(-c2cccc(F)c2)nc1 (centres unmarked) [Example 3, 6-(3-Fluorophenyl)-N-[1-methyl-2-(3-methylpyridin-2-yl)ethyl]nicotinamide]
IC50: 2.89 nM

COC(=O)c1ccc(CNC(=O)c2ccc(-c3cccc(OC)c3)nc2)cc1 [Example 344, Methyl 4-[({[6-(3-methoxyphenyl)pyridin-3-yl]carbonyl}amino)methyl] benzoate]
IC50: 159 nM

CC(NC(=O)c1ccc(-c2cccc(F)c2)nc1)c1ccncn1 (centres unmarked) [Example 443, 6-(3-Fluorophenyl)-N-(1-pyrimidin-4-ylethyl)nicotinamide]
IC50: 359 nM

O=C(NCC1COc2ccccc2C1)c1ccc(-c2cccc(F)c2)nc1 (centres unmarked) [Example 528, N-(3,4-Dihydro-2H-chromen-3-ylmethyl)-6-(3-fluorophenyl)nicotinamide]
IC50: 6.45 nM

COC(=O)CNC(=O)c1ccc(-c2cccc(C)c2)nc1 [Example 241, Methyl N-{[6-(3-methylphenyl)pyridin-3-yl]carbonyl}glycinate]
IC50: 150 nM

COC(=O)[C@H](C)NC(=O)c1ccc(-c2cccc(F)c2)nc1 [Example 174, Methyl N-{[6-(3-fluorophenyl)pyridin-3-yl]carbonyl}alaninate]
IC50: 601 nM

O=C(NCCN1CCCCC1)c1ccc(-c2ccccc2)nc1 [Example 361, 6-Phenyl-N-(2-piperidin-1-ylethyl)nicotinamide]
IC50: 11.8 nM

COC(=O)CC(NC(=O)c1ccc(-c2cccc(C)c2)nc1)c1cccnc1 (centres unmarked) [Example 230, Methyl 3-({[6-(3-methylphenyl)pyridin-3-yl]carbonyl}amino)-3-pyridin-3-ylpropanoate]
IC50: 47.2 nM

N#CC(NC(=O)c1ccc(-c2ccccc2)nc1)C(=O)NCCN1CCOCC1 (centres unmarked) [Example 376, N-{1-Cyano-2-[(2-morpholin-4-ylethyl)amino]-2-oxoethyl}-6-phenylnicotinamide]
IC50: 55.2 nM

Cc1cc(C(F)(F)F)nc(CCNC(=O)c2ccc(-c3cccc(F)c3)nc2)n1 [Example 124, 6-(3-Fluorophenyl)-N-{2-[4-methyl-6-(trifluoromethyl)pyrimidin-2-yl]ethyl}nicotinamide]
IC50: 18.3 nM

C=CCNC(=O)c1ccc(-c2cccc(F)c2)nc1 [Example 135, N-Allyl-6-(3-fluorophenyl)nicotinamide]
IC50: 46.5 nM

COCCn1cnnc1CNC(=O)c1ccc(-c2cccc(F)c2)nc1 [Example 23, 6-(3-Fluorophenyl)-N-{[4-(2-methoxyethyl)-4H-1,2,4-triazol-3-yl]methyl}nicotinamide]
IC50: 106 nM

COc1cccc(CNC(=O)c2ccc(-c3cccc(F)c3)nc2)c1OC [Example 33, N-(2,3-Dimethoxybenzyl)-6-(3-fluorophenyl)nicotinamide]
IC50: 2.72 nM

CC(NC(=O)c1ccc(-c2ccc(F)cc2)nc1)c1ccncn1 (centres unmarked) [Example 502, 6-(4-Fluorophenyl)-N-(1-pyrimidin-4-ylethyl) nicotinamide]
IC50: ≥ 1000 nM

Cc1cccc2c1OCCC2NC(=O)c1ccc(-c2cccc(F)c2)nc1 (centres unmarked) [Example 532, 6-(3-Fluorophenyl)-N-(8-methyl-3,4-dihydro-2H-chromen-4-yl)nicotinamide]
IC50: 3.94 nM

O=C(NCCC1CCC(=O)N1CCN1CCCC1)c1ccc(-c2cccc(F)c2)nc1 (centres unmarked) [Example 75, 6-(3-Fluorophenyl)-N-{2-[5-oxo-1-(2-pyrrolidin-1-ylethyl)pyrrolidin-2-yl]ethyl}nicotinamide]
IC50: 48 nM

COc1cc(F)cc(-c2ccc(C(=O)NCCCN3CCCC3=O)cn2)c1 [Example 543, 6-(3-Fluoro-5-methoxyphenyl)-N-[3-(2-oxopyrrolidin-1-yl)propyl]nicotinamide]
IC50: 104 nM

O=C(NCC1CCCN(c2ccccn2)C1)c1ccc(-c2cc(F)cc(F)c2)nc1 (centres unmarked) [Example 570, 6-(3,5-Difluorophenyl)-N-[(1-pyridin-2-ylpiperidin-3-yl)methyl]nicotinamide]
IC50: 32.5 nM

Cc1cccc(-c2ccc(C(=O)Nc3ccncc3)cn2)c1 [Example 228, 6-(3-Methylphenyl)-N-pyridin-4-ylnicotinamide]
IC50: 6.51 nM

COc1cccc(-c2ccc(C(=O)Nc3ccccc3)cn2)c1 [Example 308, 6-(3-Methoxyphenyl)-N-phenylnicotinamide]
IC50: 54 nM

Cc1cccc(-c2ccc(C(=O)NCc3nc(CS(C)(=O)=O)no3)cn2)c1 [Example 222, 6-(3-Methylphenyl)-N-({3-[(methylsulfonyl)methyl]-1,2,4-oxadiazol-5-yl}methyl)nicotinamide]
IC50: 351 nM

Cc1ccc2nc(CCNC(=O)c3ccc(-c4cccc(F)c4)nc3)cn2c1 [Example 1, 6-(3-Fluorophenyl)-N-[2-(6-methylimidazo[1,2-a]pyridin-2-yl)ethyl]nicotinamide]
IC50: 3.54 nM

CCOC(=O)C(CNC(=O)c1ccc(-c2ccccc2)nc1)c1c(F)cccc1F (centres unmarked) [Example 355, Ethyl 2-(2,6-difluorophenyl)-3-{[(6-phenylpyridin-3-yl)carbonyl]amino}propanoate]
IC50: 138 nM

O=C(NCc1ccc(Br)cc1)c1ccc(-c2cccc(F)c2)nc1 [Example 408, N-(4-Bromobenzyl)-6-(3-fluorophenyl)nicotinamide]
IC50: 103 nM

COc1ccc(CNC(=O)c2ccc(-c3ccc(F)cc3)nc2)cc1 [Example 478, 6-(4-Fluorophenyl)-N-(4-methoxybenzyl)nicotinamide]
IC50: 377 nM

COC(=O)c1ccc(CNC(=O)c2ccc(-c3ccc(F)cc3)nc2)cc1 [Example 268, Methyl 4-[({[6-(4-fluorophenyl)pyridin-3-yl]carbonyl}amino)methyl benzoate]
IC50: 286 nM

Cc1cnc(CN2CC(CNC(=O)c3ccc(-c4cccc(F)c4)nc3)OCC2=O)cn1 (centres unmarked) [Example 71, 6-(3-Fluorophenyl)-N-({4-[(5-methylpyrazin-2-yl)methyl]-5-oxomorpholin-2-yl}methyl)nicotinamide]
IC50: 61.8 nM

COc1cccc(-c2ccc(C(=O)NCC3CCN(C(C)=O)CC3)cn2)c1 [Example 273, N-[(1-Acetylpiperidin-4-yl)methyl]-6-(3-methoxyphenyl)nicotinamide]
IC50: 559 nM

O=C(NCCNc1ccccc1)c1ccc(-c2ccccc2)nc1 [Example 520, N-(2-Anilinoethyl)-6-phenylnicotinamide]
IC50: 8.8 nM

COc1cccc(-c2ccc(C(=O)NC3CCOCC3)cn2)c1 [Example 305, 6-(3-Methoxyphenyl)-N-(tetrahydro-2H-pyran-4-yl)nicotinamide]
IC50: 38.7 nM

O=C(NCc1ccco1)c1ccc(-c2cccc(F)c2)nc1 [Example 428, 6-(3-Fluorophenyl)-N-(2-furylmethyl)nicotinamide]
IC50: 40.9 nM

COc1cccc(-c2ccc(C(=O)NC(C)c3ccccc3)cn2)c1 (centres unmarked) [Example 339, 6-(3-Methoxyphenyl)-N-(1-phenylethyl)nicotinamide]
IC50: 266 nM

CN1CCN(CC(NC(=O)c2ccc(-c3cccc(F)c3)nc2)c2ccccc2)CC1 (centres unmarked) [Example 144, 6-(3-Fluorophenyl)-N-[2-(4-methylpiperazin-1-yl)-1-phenylethyl]nicotinamide]
IC50: 109 nM
